Laboratory results reported in PMC9081362, “Novel MDM2 Inhibitor XR-2 Exerts Potent Anti-Tumor Efficacy and Overcomes Enzalutamide Resistance in Prostate Cancer” (Frontiers in Pharmacology, 2022).

Biological target: MDM2 (Homo sapiens, UniProt Q00987)
Experiment: HTRF MDM2-p53 binding (displacement) assay

MDM2, sequence (Q00987 whole entry): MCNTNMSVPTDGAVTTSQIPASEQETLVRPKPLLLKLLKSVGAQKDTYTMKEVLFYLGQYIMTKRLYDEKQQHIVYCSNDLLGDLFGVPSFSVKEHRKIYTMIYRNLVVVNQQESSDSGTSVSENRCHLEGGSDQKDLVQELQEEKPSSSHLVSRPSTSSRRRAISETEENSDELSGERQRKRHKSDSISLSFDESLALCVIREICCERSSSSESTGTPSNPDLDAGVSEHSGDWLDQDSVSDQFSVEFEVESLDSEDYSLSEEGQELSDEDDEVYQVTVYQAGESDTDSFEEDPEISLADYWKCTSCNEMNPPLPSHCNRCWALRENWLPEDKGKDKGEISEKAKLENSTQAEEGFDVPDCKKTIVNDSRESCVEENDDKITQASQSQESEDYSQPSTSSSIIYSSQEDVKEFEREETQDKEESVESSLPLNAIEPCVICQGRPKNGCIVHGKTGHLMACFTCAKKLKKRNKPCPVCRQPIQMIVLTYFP
MDM2, sequence (P04637 whole entry partner): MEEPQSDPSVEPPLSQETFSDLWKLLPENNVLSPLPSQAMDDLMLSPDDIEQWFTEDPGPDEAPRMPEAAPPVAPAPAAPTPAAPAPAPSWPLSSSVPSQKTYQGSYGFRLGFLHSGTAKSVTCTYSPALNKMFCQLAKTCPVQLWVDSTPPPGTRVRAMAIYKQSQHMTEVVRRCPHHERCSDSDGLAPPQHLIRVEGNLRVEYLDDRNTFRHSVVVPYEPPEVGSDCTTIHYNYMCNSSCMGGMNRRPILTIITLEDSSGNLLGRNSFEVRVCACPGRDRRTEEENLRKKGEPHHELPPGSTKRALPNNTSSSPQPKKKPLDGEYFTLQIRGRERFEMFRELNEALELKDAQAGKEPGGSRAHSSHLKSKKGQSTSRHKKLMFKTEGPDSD

## COCCOCCOCCOC(=O)N1[C@@H](CC(C)(C)C)[C@@]2(C(=O)Nc3cc(Cl)ccc32)[C@@H](c2cccc(Cl)c2F)[C@@H]1C(=O)Nc1ccc(C(N)=O)cc1OC [XR-2, 2-(2-(2-methoxyethoxy)ethoxy)ethyl-(2′S,3R,4′S,5′R)-5'-((4-carbamoyl-2-methoxyphenyl)carbamoyl)-6-chloro-4'-(3-chloro-2-fluorophenyl)-2′-neopentyl-2-oxospiro[indoline-3,3′-pyrrolidine]-1′-carboxylate]
  HTRF MDM2-p53 binding (displacement) assay: The homogeneous time-resolved fluorescence binding assay proved that XR-2 directly inhibited MDM2–p53 interaction
